Data: patent publication US5889029A, “Use of cotinine in treating psychiatric disorders” (priority 1997, dated 1999)

Assays:
[1] = cited from earlier work
[2] = target: T1, recombinant Rat 5HT7 Clone (Rattus norvegicus, UniProt P32305); assay: Serotonin--5HT7 Clone Binding Assay; details: [3H]LSD 2.0 nM, read-out: Receptor Binding Activity Percent Inhibition Average (N = 2)
T1 construct: expressed in transfected cells

[3] = target: T2, Human recombinant M1 clone (Homo sapiens, UniProt P11229); assay: biochemical; format: binding
T2 construct: expressed in transfected cells
T2 sequence (P11229 1-460): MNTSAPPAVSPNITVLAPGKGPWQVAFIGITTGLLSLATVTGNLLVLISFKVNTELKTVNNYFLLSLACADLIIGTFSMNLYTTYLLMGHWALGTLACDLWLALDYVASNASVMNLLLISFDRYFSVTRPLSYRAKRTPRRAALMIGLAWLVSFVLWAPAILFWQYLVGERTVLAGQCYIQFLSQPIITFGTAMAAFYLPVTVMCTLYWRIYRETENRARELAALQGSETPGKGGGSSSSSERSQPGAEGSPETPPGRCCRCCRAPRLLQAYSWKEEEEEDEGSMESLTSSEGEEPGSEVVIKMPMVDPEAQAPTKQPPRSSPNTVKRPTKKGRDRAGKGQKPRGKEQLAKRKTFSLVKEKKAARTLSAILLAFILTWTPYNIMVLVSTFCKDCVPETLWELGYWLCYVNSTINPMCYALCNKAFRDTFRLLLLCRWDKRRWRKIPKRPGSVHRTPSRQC

[4] = target: T3, dopamine uptake site (Cavia porcellus, UniProt H0WCX4); assay: Dopamine Reuptake Binding Assay; details: Guinea pig striatal membranes, [3H]WIN,35,428 1.0 nM
T3 construct: Guinea pig striatal membranes; from tissue; host or cells: guinea pig striatal membranes

[5] = test system: Glutamic Acid Decarboxylase (GAD); assay: Glutamic Acid Decarboxylase (GAD) Enzyme Assay; format: biochemical; details: 10^-8 M; Rat corpus striatal membranes; [14C]L-Glutamic acid
Experimental: Radioimmunoassay studies were conducted with rat corpus striatal membranes using the following method.
Glutamic Acid Decarboxylase (GAD) Enzyme Assay
Rat corpus striatal membranes
Substrate: [^14 C]L-Glutamic acid (30-80 Ci/mmol)
Reactions are incubated in phosphate/mercapoethanol buffer
6.9) for 30 minutes at 37° C. The reaction is
stopped by the addition
of trichloroacetic acid and placement on ice. Radioactive
trapped in phenylethylamine/methanol and quantitated using
scintillation […] in order to ascertain any
of test compounds with the glutamic acid decarboxylase

[6] = test system: Serotonin (5HT1); assay: Serotonin (5HT1) Binding Assay; details: Rat cortical membranes, [3H]Hydroxytryptamine binoxalate 3.0 nM
[7] = humans, cited from earlier work
[8] = target: T4, Dopamine (D1 Central) (Rattus norvegicus, UniProt P18901); assay: Dopamine (D1 Central) Binding Assay; details: Rat striatal membranes, [3H]SCH 23390 0.5 nM
T4 construct: Rat striatal membranes; from tissue; host or cells: rat striatal membranes

[9] = target: T5, Benzodiazepine (Peripheral) (Rattus norvegicus, UniProt P16257); assay: Benzodiazepine (Peripheral) Binding Assay; details: read-out: Receptor Binding Activity Percent Inhibition Average (N = 2)
T5 construct: Rat kidney membranes; from tissue; host or cells: rat kidney membranes

[10] = read-out: Receptor Binding Activity Percent Inhibition Average (N = 2)

T4 sequence (P18901 whole entry): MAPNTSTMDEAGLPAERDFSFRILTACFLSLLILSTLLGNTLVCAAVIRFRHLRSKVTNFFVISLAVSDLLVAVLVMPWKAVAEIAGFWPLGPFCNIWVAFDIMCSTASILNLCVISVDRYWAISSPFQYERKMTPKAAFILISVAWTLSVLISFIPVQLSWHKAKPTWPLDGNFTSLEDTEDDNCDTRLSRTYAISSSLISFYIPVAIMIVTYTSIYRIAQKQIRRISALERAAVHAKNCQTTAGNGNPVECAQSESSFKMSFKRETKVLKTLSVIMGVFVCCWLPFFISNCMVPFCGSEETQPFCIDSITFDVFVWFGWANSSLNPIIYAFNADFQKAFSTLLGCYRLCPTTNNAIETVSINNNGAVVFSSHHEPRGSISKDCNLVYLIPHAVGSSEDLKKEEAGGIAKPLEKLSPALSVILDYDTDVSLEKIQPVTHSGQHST
T5 sequence (P16257 whole entry): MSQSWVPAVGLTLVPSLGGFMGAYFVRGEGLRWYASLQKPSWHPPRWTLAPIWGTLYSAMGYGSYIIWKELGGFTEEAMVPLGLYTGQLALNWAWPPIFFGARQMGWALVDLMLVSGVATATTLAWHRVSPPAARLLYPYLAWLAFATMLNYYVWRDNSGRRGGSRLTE
T3 sequence (H0WCX4 1-619): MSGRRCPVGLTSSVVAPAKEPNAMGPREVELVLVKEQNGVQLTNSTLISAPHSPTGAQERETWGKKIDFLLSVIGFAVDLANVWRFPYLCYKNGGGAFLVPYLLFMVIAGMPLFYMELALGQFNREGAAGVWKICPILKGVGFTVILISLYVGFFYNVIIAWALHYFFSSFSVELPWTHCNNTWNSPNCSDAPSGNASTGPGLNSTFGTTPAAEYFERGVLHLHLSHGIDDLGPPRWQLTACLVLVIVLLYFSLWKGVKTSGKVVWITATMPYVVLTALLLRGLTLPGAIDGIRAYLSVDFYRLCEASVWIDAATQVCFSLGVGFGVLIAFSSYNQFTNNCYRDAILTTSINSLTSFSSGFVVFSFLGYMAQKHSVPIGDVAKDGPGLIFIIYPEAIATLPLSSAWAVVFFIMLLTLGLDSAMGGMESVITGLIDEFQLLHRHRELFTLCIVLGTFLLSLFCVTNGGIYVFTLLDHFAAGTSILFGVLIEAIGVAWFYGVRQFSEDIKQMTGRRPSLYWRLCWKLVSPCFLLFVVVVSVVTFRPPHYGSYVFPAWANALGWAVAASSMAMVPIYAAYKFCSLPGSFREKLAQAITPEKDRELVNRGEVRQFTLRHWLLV
T1 sequence (P32305 whole entry): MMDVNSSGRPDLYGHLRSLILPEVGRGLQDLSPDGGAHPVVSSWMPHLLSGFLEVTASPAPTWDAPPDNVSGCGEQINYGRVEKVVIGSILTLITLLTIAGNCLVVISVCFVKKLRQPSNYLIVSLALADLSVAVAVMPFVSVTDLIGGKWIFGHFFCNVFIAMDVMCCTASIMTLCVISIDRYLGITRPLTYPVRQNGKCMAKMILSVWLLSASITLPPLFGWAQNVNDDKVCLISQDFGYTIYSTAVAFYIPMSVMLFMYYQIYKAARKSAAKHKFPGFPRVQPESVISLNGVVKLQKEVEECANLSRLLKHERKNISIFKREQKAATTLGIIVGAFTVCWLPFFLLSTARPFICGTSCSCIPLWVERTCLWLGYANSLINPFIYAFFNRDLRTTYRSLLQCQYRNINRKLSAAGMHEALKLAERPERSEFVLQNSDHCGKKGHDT

For `CN1C(=O)CCC1c1cccnc1` (single isomer, unassigned) [Cotinine, 1-methyl-5-(3-pyridinyl)-2-pyrrolidionone], the “amount present in the blood without producing deleterious effects” value ([1]; humans) is listed as ~18,000 ng/ml, the “effect on the cardiovascular system” value ([1]; in vivo) is listed as “minimal effect” and the “harm at very high doses” value ([1]; many species, including man) is listed as “has not been reported to be harmful”. The inhibition at 100 µM ([2]; 10^-4 M) was 6.4%, the inhibition at 1 µM ([2]; 10^-6 M) was -0.3% and the “effectiveness in binding relative to an equal concentration of nicotine, binding expressed as percent inhibition” value [3] was “about 19 times”. The inhibition at 1 µM [3, 10] was 15.5%, the inhibition at 100 µM [3, 10] was 19.5% and the “Receptor Binding Activity Percent Inhibition Average (N = 2)” value ([4]; 10^-4 M) was 7.5%. For the same molecule, the “Receptor Binding Activity Percent Inhibition Average (N = 2)” value ([4]; 10^-6 M) was 14.2%, the “Percent Inhibition” value [5] was 38% and the “Receptor Binding Activity Percent Inhibition Average (N = 2)” value ([6]; 10^-4 M) was -0.8%. The “Receptor Binding Activity Percent Inhibition Average (N = 2)” value ([6]; 10^-6 M) was 10.9%, the cardiovascular changes ([7]; intravenous infusion over 60 minutes) was “no cardiovascular changes” and the “subjective ratings of desire to smoke, irritability, low energy and anxiety/tension” value ([7]; intravenous infusion over 60 minutes, comparable to placebo-induced changes) was “significant decreases”. The subjective ratings ([7]; rapid infusion over 5 minutes) was “no significant changes”, the “Receptor Binding Activity Percent Inhibition Average (N = 2)” value ([8]; 10^-4 M) was 3.3% and the “Receptor Binding Activity Percent Inhibition Average (N = 2)” value ([8]; 10^-6 M) was 2.9%. The inhibition at 1 µM [9] was 8.5% and the inhibition at 100 µM [9] was 1.4%.
